Tested on: TAC mice
Test: Cognition (Y Maze, exploratory behaviour)
Format: in vivo
Description: FIG. 24 is a dot plot showing the % alterations in a Y maze in mice with an absorbable suture versus a plain suture, with and without treatment according to some embodiments. Measurement of the number of alternations within the 3 arms of a Y-Maze according to the following formula: % alternation=(total alternations/(total entries−2)×100).
Cognition (Y Maze—exploratory behaviour). Cognition was measured according to the number of behavior alterations within the three (3) arms of a Y Maze, as shown in FIGS. 23-24.

CCCCCCCCc1ccc(CCC(N)(CO)CO)cc1 [Fingolimod, fingolimod]
mean % alteration in a Y maze (treated absorbable suture group, SEM=3.556, n=7): 61.396%
mean % alteration in a Y maze (treated plain suture group, SEM=2.644, n=12): 70.296%

Source: patent US20250177115A1, “COMBINATORIAL THERAPIES INCLUDING IMPLANTABLE DAMPING DEVICES AND THERAPEUTIC AGENTS FOR TREATING A CONDITION AND ASSOCIATED SYSTEMS AND METHODS OF USE” (THE BRAIN PROTECTION COMPANY PTY LTD, priority 2021, published 2025)
